# From patent US11773146B2, “Disruption of the WAVE3 protein complex for suppression of invasion and metastasis” (UNIVERSITY OF GEORGIA RESEARCH FOUNDATION, INC., priority 2015, dated 2023)
# “Also recorded” adds a separate entry of the source. Bridges are numbered along the chain shown (N, C = ends). Where no end group is shown, it is not given here. [ ]: non-standard residue; d: D form. S5 = C=CCCC[C@](C)(N)C(=O)O
# What was measured:
# [1] = tested on: MDA-MB-231 cells; experiment: Transwell invasion assay (WANT peptides); assay type: cell-based
# From the text: There are currently no small molecules that target WASF3 function directly, but targeting the WRC may provide a means of suppressing invasion.
# [2] = tested on: MDA-MB-231 and Hs578T cells; experiment: Cell proliferation, viability and toxicity with WANT3; assay type: cell-based
# From the text: (§1) MDA-MB-231, Hs578T and T47D breast cancer cell lines were obtained directly from American Type Culture Collection (Rockville, Md.). MDA-MB-231 and T47D and have been verified using SNP-CGH (Teng Y, et al. Int J Cancer 2011 129:2825-2835) for characteristic cytogenetic changes. The ATCC Cell Authentication Testing service confirmed the identity of Hs578T using STR DNA fingerprinting analysis. Standard cell culture, transient transfections, RT-PCR, western blotting, immunoprecipitation (IP), flow cytometry, Biotin-Avidin pulldown, lentiviral transduction, cell proliferation and Transwell invasion assays were carried out as described previously (Teng Y, et al. Int J Cancer 2011 129:2825-2835; Teng Y, et al. J Biol Chem 2012 287:10051-10059; Teng Y, et al. Carcinogenesis 2013 34:1994-1999).
# [3] = tested on: MDA-MB-231 cells; conditions: 37° C., after 7 days
# Procedure: To evaluate the stability of these SPs, WANT3 was incubated in serum containing medium for varying lengths of time (1-7 days) at 37° C. and then this medium was added to MDA-MB-231 cells to evaluate the ability of the preincubated peptides to suppress invasion.
# [4] = tested on: NCKAP1; experiment: Western blot of NCKAP1 protein after WANT3; assay type: cell-based; conditions: 10 μM
# From the text: as §1
# [5] = biological target: T1, WASF3 complex (Homo sapiens); experiment: IP of WASF3 complex after WANT3 or WAHM1 (phosphoactivation, RAC1 engagement); assay type: cell-based; conditions: MDA-MB-231 cells
# T1 construct: endogenous in cells; host or cells: MDA-MB-231
# From the text: as §1
# [6] = tested on: WASF3; experiment: Western blot of WASF3 stability after WANT3; assay type: cell-based
# From the text: as §1
# [7] = concentration range of 2.5-20 μM
# T1 sequence (Q7L576 whole entry, one chain of several): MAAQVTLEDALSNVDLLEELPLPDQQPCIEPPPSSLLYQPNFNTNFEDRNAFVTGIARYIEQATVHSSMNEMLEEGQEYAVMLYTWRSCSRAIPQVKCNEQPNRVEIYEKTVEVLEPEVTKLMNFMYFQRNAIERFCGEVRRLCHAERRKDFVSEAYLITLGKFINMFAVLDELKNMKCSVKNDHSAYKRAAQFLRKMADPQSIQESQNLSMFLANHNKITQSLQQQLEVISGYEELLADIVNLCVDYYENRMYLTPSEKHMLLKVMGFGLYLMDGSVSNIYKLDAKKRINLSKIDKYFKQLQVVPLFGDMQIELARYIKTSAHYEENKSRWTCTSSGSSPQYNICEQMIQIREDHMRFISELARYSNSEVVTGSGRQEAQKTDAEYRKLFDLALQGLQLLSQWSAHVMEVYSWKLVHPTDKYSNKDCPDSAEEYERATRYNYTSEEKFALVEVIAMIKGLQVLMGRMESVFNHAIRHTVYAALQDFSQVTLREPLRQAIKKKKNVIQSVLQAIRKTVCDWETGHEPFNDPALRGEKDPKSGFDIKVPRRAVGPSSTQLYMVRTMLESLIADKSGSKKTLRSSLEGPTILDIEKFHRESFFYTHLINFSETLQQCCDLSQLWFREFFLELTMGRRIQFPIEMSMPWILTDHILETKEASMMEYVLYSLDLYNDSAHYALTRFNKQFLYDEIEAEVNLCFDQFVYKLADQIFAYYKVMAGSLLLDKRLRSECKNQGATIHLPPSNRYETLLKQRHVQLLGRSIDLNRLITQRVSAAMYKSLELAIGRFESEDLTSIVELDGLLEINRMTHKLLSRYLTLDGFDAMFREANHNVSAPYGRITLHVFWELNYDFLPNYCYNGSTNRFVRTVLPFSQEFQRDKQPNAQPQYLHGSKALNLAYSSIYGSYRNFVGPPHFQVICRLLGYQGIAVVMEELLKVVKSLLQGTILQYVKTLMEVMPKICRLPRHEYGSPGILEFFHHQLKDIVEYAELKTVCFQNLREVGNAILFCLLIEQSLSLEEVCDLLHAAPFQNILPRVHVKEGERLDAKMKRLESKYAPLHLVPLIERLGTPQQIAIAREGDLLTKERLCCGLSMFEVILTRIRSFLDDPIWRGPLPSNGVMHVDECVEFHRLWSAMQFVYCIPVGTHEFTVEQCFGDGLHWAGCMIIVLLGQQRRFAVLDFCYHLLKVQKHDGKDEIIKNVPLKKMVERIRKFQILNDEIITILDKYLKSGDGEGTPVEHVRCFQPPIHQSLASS
sequence,measurement,setting,value
"VLXRNAXHAVYK (VL[S5]RNA[S5]HAVYK-NH2; staple 3-7; not fully specified (N-terminus); also: FITC label (in alias), site not given here) [WANT3, WASF3-NCKAP1 Target stapled peptide, NCKAP1 peptide mimic; X is (S)-2-(4′-pentenyl)alanine]","suppression of invasion, WAHM1 compared with WANT3",[1],comparable suppression of invasion
same,invasion potential,[1]; final concentration of 10 μM,highly significant suppression of invasion; also recorded: significantly suppresses
same,invasion at increased concentration,[1]; high dose 20 μM compared with low dose,greater suppression of invasion; also recorded: more remarkable reduction
same,cell proliferation,[2]; 10 μM,without affecting cell proliferation
same,in vitro cell toxicity,[2]; 10 μM,minimal
same,cell proliferation rate,[2]; [7],does not affect
same,viability,[2]; [7],does not affect
same,suppression of invasion after preincubation in serum-containing medium,[3],residual effect on suppression of invasion
same,NCKAP1 protein levels,[4],loss of the NCKAP1 protein; also recorded: suppresses both WASF3 and NCKAP1 protein levels
same,"engagement of RAC1 with the WASF3 complex, WANT3 compared with WHAM1",[5],more significant
same,"phosphoactivation of WASF3, WANT3 compared with WAHM1",[5],more significantly
same,concentration achieving maximal effect on WASF3 stability,[6],20 µM
same,WASF3 stability / protein levels,"[6]; 10 μM, compared with scrambled peptide",significant destabilization of WASF3; also recorded: suppresses both WASF3 and NCKAP1 protein levels
same,"destabilization of WASF3, WANT3 compared with WHAM1",[6]; MDA-MB-231 cells,more efficient in destabilizing WASF3
same,dose dependence of WASF3 destabilization,[6]; MDA-MB-231 cells,suppresses WASF3 protein levels in a dose-dependent manner; also recorded: dose-dependent destabilization of the WASF3 protein
